Experimental findings from article PMC5448350, “2-Pentadecyl-2-Oxazoline, the Oxazoline of Pea, Modulates Carrageenan-Induced Acute Inflammation” (Frontiers in Pharmacology, 2017) are described below.

The assay has as its target T1, N-acylethanolamine-hydrolyzing acid amidase (NAAA) (Homo sapiens, UniProt Q02083).
T1 construct: human recombinant NAAA stably expressed in HEK-293 cells (12000 × g membrane fraction)
T1 sequence (Q02083 29-125): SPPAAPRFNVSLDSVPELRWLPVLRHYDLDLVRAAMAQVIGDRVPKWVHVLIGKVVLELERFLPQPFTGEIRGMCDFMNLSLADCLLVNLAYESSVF
T1 sequence (Q02083 126-359): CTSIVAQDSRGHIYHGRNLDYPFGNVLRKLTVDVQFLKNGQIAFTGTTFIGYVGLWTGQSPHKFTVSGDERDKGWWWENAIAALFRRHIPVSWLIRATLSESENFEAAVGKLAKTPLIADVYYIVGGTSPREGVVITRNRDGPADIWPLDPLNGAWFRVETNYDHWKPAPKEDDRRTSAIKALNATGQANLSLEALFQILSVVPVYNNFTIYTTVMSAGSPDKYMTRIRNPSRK
The experiment in a line: [3H]-PEA hydrolysis assay in membranes of HEK-293 cells overexpressing human NAAA, pH […]. It counts as cell-based. As to conditions: HEK293.

As for `CCCCCCCCCCCCCCCC1=NCCO1` [PEA-OXA, 2-Pentadecyl-2-oxazoline], the inhibition (as a rule, the percentage by which the read-out fell short of the control) at 50 µM is 75%.
